Data as given in patent publication US9969714B2, “Carboxylic acid compounds useful for inhibiting microsomal prostaglandin E2 synthase-1” (Eli Lilly and Company, priority 2014, dated 2018).

Assays:
[1] = test system: Human epithelial lung carcinoma cell line A549; assay: Cell based assay for measuring eicosanoid selectivity (rhIL-1β-induced PGE2, EIA); conditions: A549 cells, rhIL-1β 0.1 ng/mL, approximately 18 hours, read-out: IC50, inhibition of PGE2 formation
Method: Human epithelial lung carcinoma cell line A549 is obtained from ATCC (CCL-185) and maintained in cell growth medium (Kaighn's F12 cell culture medium+10% fetal bovine serum (FBS)), under standard 5% CO2 humidified atmosphere at 37° C. The cells are passaged at 1:3 twice per week.
For the assays, cells are harvested from flasks by washing once with phosphate buffered saline (PBS), then once with Trypsin-EDTA. After 3-5 minutes at 37° C., the cells are suspended in cell growth medium and centrifuged at 2,000 rpm, 25° C., for 5 minutes. The supernatant is aspirated and the cell pellet is re-suspended in cell growth medium. The cell number is determined by counting an aliquot of cells which has been diluted in PBS and Trypan blue on a hemocytometer. Cells are plated at 40,000/well in 96 well Falcon plates 24 hours prior to treatment. Compounds are diluted in DMSO to 100× of the final concentration in Screen Mates tubes. The medium is removed from the cells and fresh medium (90 μL/well) is added to the cells. The compounds are added at 1 μL/well, n=2, to give seven concentrations each. Cells are pretreated with compounds for 30 minutes at 37° C., 5% CO2. […] After approximately 90-120 minutes at room temperature on an orbital shaker at 100 rpm, the plates are read at A412 on a plate reader. […]

human whole blood = assay: Human whole blood assay (LPS-induced PGE2, LC/MS/MS); type: cell-based; conditions: LPS 100 μg/mL, 20-24 hours, n=6, read-out: IC50, inhibition of PGE2 formation
Method: Blood is collected from normal volunteer donors into sodium heparin VACUTAINER tubes. Donors are selected, in part, on their confirmation that they have not taken NSAIDs, aspirin, Celebrex®, or glucocorticoids within two weeks of the donation. All tubes/donor are pooled into 250 mL Corning conical centrifuge tubes and 436.5 μL/well is distributed into deep well polypropylene plates. Compounds are diluted in DMSO to 100× final and 4.5 μL/well in duplicate or triplicate is added to give 7 point curves. […] One hundred microliters is quantitatively transferred to Costar cluster tubes blocks and 400 μL/well of the methanol stop reagent and internal standards, d4-PGE2, d4-PGF2α, and […] are added. […]
Solid phase extraction is performed using Waters HLB 30 mg/bed 96 well plates on a vacuum manifold: Step 1, the matrix is washed with methanol (1 mL), followed by 0.1% formic acid in water (1 mL); Step 2, 400 μL sample is applied along with 0.1% formic acid in water (900 μL) and allowed to bind for 5 minutes; Step 3, the matrix is washed with 0.1% formic acid in water (600 μL), followed by 80/20 water/methanol (600 μL); Step 4, the products are eluted with 2-500 μL volumes of EtOAc; Step 5 the samples are dried under nitrogen and reconstituted in 75/25 water/acetonitrile with 0.1% formic acid (50 μL). The products are analyzed by LC/MS/MS.

For `Cc1cccc2ccc(N3CCC(C(=O)N[C@H]4CCC[C@H]4CCc4ccccc4C(=O)O)CC3)nc12` [Example 1, 2-(2-((1S,2S)-2-(1-(8-Methylquinolin-2-yl)piperidine-4-carboxamido)cyclopentyl)ethyl)benzoic acid], the IC50 [1] was 5.3 nM and the IC50 (human whole blood) was 5.9 ± 3.4 nM.
